Legend:
Format in all cases: cell-based, human
[1] = test system: Peripheral blood mononuclear cells, B cells; assay: BioMAP Diversity PLUS BT system (T cell dependent B cell activation); conditions: for interleukin 17A (IL-17A): human cell system mimicking asthma, autoimmunity and allergies (FIG. 5)
Experimental: (§1) This study examined activities of small molecules discovered in dolphin serum that had protective profiles against diseases of aging which can impact quality of life and longevity. These molecules were tested across 12 human primary cell-based systems as part of DiscoverX's BioMAP Diversity Plus program. These systems are designed to model complex human tissue and disease biology of the vasculature, skin, lung, and inflammatory tissues. Quantitative measurements of biomarker activities across this broad panel, along with comparative analysis of biological activities of known bioactive agents were used to predict and compare the efficacy and function of the four compounds. Compounds were tested at four concentrations (740 nm and 2.2, 6.7 and 20 μM).
(§2) BioMAP panels consist of human primary cell-based systems designed to model different aspects of the human body in an in vitro format. The 12 systems in the Diversity PLUS panel allow test agent characterization in an unbiased way across a broad set of systems modeling various human disease states. BioMAP systems are constructed with one or more primary cell types from healthy human donors, with stimuli (such as cytokines or growth factors) added to capture relevant signaling networks that naturally occur in human tissue or pathological conditions. Vascular biology is modeled in both a Th1 (3C system) and a Th2 (4H system) inflammatory environment, as well as in a Th1 inflammatory state specific to arterial smooth muscle cells (CASM3C system). Additional systems recapitulate aspects of the systemic immune response including monocyte-driven Th1 inflammation (LPS system) or T cell stimulation (SAg system), chronic Th1 inflammation driven by macrophage activation (lMphg system) and the T cell-dependent activation of B cells that occurs in germinal centers (BT system). The BE3C system (Th1) and the BF4T system (Th2) represent airway inflammation of the lung, while the MyoF system models myofibroblast-lung tissue remodeling. Lastly, skin biology is addressed in the KF3CT system modeling Th1 cutaneous inflammation and the HDF3CGF system modeling wound healing.
(§3) Each test agent generates a signature BioMAP profile that is created from the changes in protein biomarker readouts within individual system environments. Biomarker readouts (7-17 per system) are selected for therapeutic and biological relevance, are predictive for disease outcomes or specific drug effects and are validated using agents with known mechanism of action (MoA). Each readout is measured quantitatively by immune-based methods that detect protein (e.g., ELISA) or functional assays that measure proliferation and viability. BioMAP readouts are diverse and include cell surface receptors, cytokines, chemokines, matrix molecules and enzymes.
(§4) The Diversity PLUS panel allows test agent characterization in an unbiased way across a broad set of systems modeling various human disease states. These systems are designed to model complex human tissue and disease biology of the vasculature, skin, lung, and inflammatory tissues.
(§5) BioMAP systems are constructed with one or more primary cell types from healthy human donors, with stimuli (such as cytokines or growth factors) added to capture relevant signaling networks that naturally occur in human tissue or pathological conditions. Vascular biology is modeled in both a Th1 (3C system) and a Th2 (4H system) inflammatory environment, as well as in a Th1 inflammatory state specific to arterial smooth muscle cells (CASM3C system). Additional systems recapitulate aspects of the systemic immune response including monocyte-driven Th1 inflammation (LPS system) or T cell stimulation (SAg system), chronic Th1 inflammation driven by macrophage activation (lMphg system) and the T cell-dependent activation of B cells that occurs in germinal centers (BT system).

[2] = test system: Dermal fibroblasts; assay: BioMAP Diversity PLUS HDF3CGF system (wound healing and matrix/tissue remodeling); conditions: for decorin: fibrosis and chronic inflammation (FIG. 7)
Experimental: as §1, §2, §3, §4, §5

[3] = test system: Lung fibroblasts; assay: BioMAP Diversity PLUS MyoF system (myofibroblast differentiation and tissue remodeling)
Experimental: as §1, §2
as §3, with “enzymes. In total, the Diversity PLUS panel contains 148 biomarker readouts that capture biological changes that occur within the physiological context of the particular BioMAP system. Specific BioMAP activities have been correlated to in vivo biology, and multiparameter BioMAP profiles have been used to distinguish compounds based on MoA and target selectivity across diverse physiological systems.” for “enzymes.”
(§6) The Diversity PLUS panel allows test agent characterization in an unbiased way across a broad set of systems modeling various human disease states. These systems are designed to model complex human tissue and disease biology of the vasculature, skin, lung, and inflammatory tissues. Quantitative measurements of 148 biomarker activities across this broad panel, along with comparative analysis of biological activities from known bioactive agents, were used to predict and compare the efficacy and function of each selected compound at four concentrations (740 nm and 2.2, 6.7 and 20 μM). […]

[4] = test system: Macrophages, venular endothelial cells; assay: BioMAP Diversity PLUS lMphg system (Th1 type chronic inflammation, macrophage activation); conditions: /Mphg system; 2.2 μM
Experimental: as §1, §2
as §3, with “enzymes. In total, the Diversity PLUS panel contains 148 biomarker readouts that capture biological changes that occur within the physiological context of the particular BioMAP system. Specific BioMAP activities have been correlated to in vivo biology, and multiparameter BioMAP profiles have been used to distinguish compounds based on MoA and target selectivity across diverse physiological systems.” for “enzymes.”
as §6

[5] = test system: Venular endothelial cells, peripheral blood mononuclear cells; assay: BioMAP Diversity PLUS LPS system (Th1 type chronic inflammation, monocyte activation); conditions: for secretion of prostaglandin E2 (PGE2): human cell system mimicking T-cell and monocyte driven chronic inflammation and cardiovascular diseases (FIG. 4)
Experimental: as §1, §2, §3, §4, §5

[6] = test system: Venular endothelial cells, peripheral blood mononuclear cells; assay: BioMAP Diversity PLUS SAg system (T cell stimulation, Th1 type chronic inflammation); conditions: for Significant log10 reduction compared to nontreated controls: T cell proliferation / Significant log10 reduction compared to nontreated controls: Monocyte chemoattractant protein 1 (MCP-1): SAg system; for T cell proliferation: concentrations ranging from 740 nm to 6.7 μM (FIG. 2)
Experimental: as §1, §2
as §3, with “enzymes. In total, the Diversity PLUS panel contains 148 biomarker readouts that capture biological changes that occur within the physiological context of the particular BioMAP system. Specific BioMAP activities have been correlated to in vivo biology, and multiparameter BioMAP profiles have been used to distinguish compounds based on MoA and target selectivity across diverse physiological systems.” for “enzymes.”
as §6

[7] = human cell system mimicking T-cell driven chronic inflammation and autoimmune diseases
[8] = human cell system mimicking wound healing, remodeling

CC(=O)NCCc1c[nH]cn1 [N-acetylhistamine]
Significant log10 reduction compared to nontreated controls: B cell proliferation ([1]; BT system, 2.2 μM): −0.12 log10 | Significant log10 reduction compared to nontreated controls: B cell proliferation ([1]; BT system, 6.7 μM): −0.06 log10 | Significant log10 reduction compared to nontreated controls: B cell proliferation ([1]; BT system, 20.0 μM): −0.08 log10 | Significant log10 reduction compared to nontreated controls: Secreted interleukin 17A (IL-17A) ([1]; BT system, 20.0 μM): −0.19 log10 | Significant log10 reduction compared to nontreated controls: Secreted interleukin 17F (IL-17F) ([1]; BT system, 20.0 μM): −0.42 log10 | Significant log10 reduction compared to nontreated controls: Vascular cell adhesion molecule 1 (VCAM-1) ([2]; HDF3CGF system, 6.7 μM): −0.08 log10 | Significant log10 reduction compared to nontreated controls: Collagen III ([2]; HDF3CGF system, 20.0 μM): −0.13 log10 | Significant log10 reduction compared to nontreated controls: Vascular cell adhesion molecule 1 (VCAM-1) ([2]; HDF3CGF system, 20.0 μM): −0.15 log10 | Significant log10 reduction compared to nontreated controls: Alpha smooth muscle actin (αSMA) ([3]; 0.7 μM): −0.05 log10 | Significant log10 reduction compared to nontreated controls: Alpha smooth muscle actin (αSMA) ([3]; 2.2 μM): −0.06 log10 | Significant log10 reduction compared to nontreated controls: Alpha smooth muscle actin (αSMA) ([3]; 6.7 μM): −0.11 log10 | Significant log10 reduction compared to nontreated controls: Alpha smooth muscle actin (αSMA) ([3]; 20.0 μM): −0.09 log10 | Significant log10 reduction compared to nontreated controls: Monocyte chemoattractant protein 1 (MCP-1) [4]: −0.26 log10

N[C@@H](CCC(=O)NCC(=O)O)C(=O)O [Gamma-glutamylglycine]
secretion of prostaglandin E2 (PGE2) [5]: lowered | Significant log10 reduction compared to nontreated controls: T cell proliferation ([6]; 6.7 μM): −0.11 log10 | Significant log10 reduction compared to nontreated controls: T cell proliferation ([6]; 20.0 μM): −0.07 log10 | CD40 ([6]; human cell system mimicking T-cell driven chronic inflammation and autoimmune diseases, 740 nm, 2.2 μM, and 6.7 μM (FIG. 3)): lowered | T cell proliferation [6, 7]: decreased | Significant log10 reduction compared to nontreated controls: Secreted interleukin 17A ([1]; BT system, 0.7 μM): −0.17 log10 | Significant log10 reduction compared to nontreated controls: Secreted interleukin 17A (IL-17A) ([1]; BT system, 2.2 μM): −0.17 log10 | interleukin 17A (IL-17A) [1]: lowered | decorin [2, 8]: inhibitory activity

NC(=O)NCCCC[C@H](N)C(=O)O [Homocitrulline]
secretion of prostaglandin E2 (PGE2) [5]: lowered | T cell proliferation [6, 7]: decreased | interleukin 8 (IL-8) ([2]; human cell system mimicking wound healing, remodeling, fibrosis and chronic inflammation (FIG. 8)): inhibitory activity

O=C(O)Cc1c[nH]cn1 [4-imidazoleacetate]
Significant log10 reduction compared to nontreated controls: T cell proliferation ([6]; 2.2 μM): −0.11 log10 | Significant log10 reduction compared to nontreated controls: T cell proliferation ([6]; 6.7 μM): −0.09 log10 | Significant log10 reduction compared to nontreated controls: T cell proliferation ([6]; 20.0 μM): −0.09 log10 | T cell proliferation [6, 7]: decreased | Significant log10 reduction compared to nontreated controls: Secreted interleukin 17F (IL-17F) ([1]; BT system, 0.7 μM): −0.16 log10

O=C(O)[C@@H]1C[C@@H](O)CN1 (relative stereo) [Trans-4-hydroxyproline]
T cell proliferation [6, 7]: decreased | interleukin 17A (IL-17A) [1]: lowered | decorin [2, 8]: inhibitory activity

CCCCCCCCCCCCCCC(=O)O [Pentadecanoate (C15:0), pentadecanoate]
Significant log10 reduction compared to nontreated controls: Monocyte chemoattractant protein 1 (MCP-1) ([6]; 6.7 μM): −0.18 log10 | Significant log10 reduction compared to nontreated controls: Monocyte chemoattractant protein 1 (MCP-1) ([6]; 20.0 μM): −0.15 log10 | Significant log10 reduction compared to nontreated controls: Secreted interleukin 17A (IL-17A) ([1]; BT system, 2.2 μM): −0.25 log10 | Significant log10 reduction compared to nontreated controls: Secreted interleukin 17F (IL-17F) ([1]; BT system, 2.2 μM): −0.16 log10 | Significant log10 reduction compared to nontreated controls: Secreted immunoglobulin G (IgG) ([1]; BT system, 6.7 μM): −0.17 log10 | Significant log10 reduction compared to nontreated controls: Secreted immunoglobulin G (IgG) ([1]; BT system, 20.0 μM): −0.55 log10 | Significant log10 reduction compared to nontreated controls: Secreted interleukin 6 (IL-6) ([1]; BT system, 20.0 μM): −0.29 log10 | Significant log10 reduction compared to nontreated controls: Secreted interleukin 17A (IL-17A) ([1]; BT system, 20.0 μM): −0.29 log10 | Significant log10 reduction compared to nontreated controls: Secreted interleukin 17F (IL-17F) ([1]; BT system, 20.0 μM): −0.18 log10 | Significant log10 reduction compared to nontreated controls: 72-hour fibroblast proliferation ([2]; HDF3CGF system, 6.7 μM): −0.67 log10 | Significant log10 reduction compared to nontreated controls: Collagen I ([2]; HDF3CGF system, 6.7 μM): −0.07 log10 | Significant log10 reduction compared to nontreated controls: Plasminogen activation inhibitor 1 (PAI-1) ([2]; HDF3CGF system, 6.7 μM): −0.08 log10 | Significant log10 reduction compared to nontreated controls: 72-hour fibroblast proliferation ([2]; HDF3CGF system, 20.0 μM): −1.1 log10 | Significant log10 reduction compared to nontreated controls: Collagen I ([2]; HDF3CGF system, 20.0 μM): −0.13 log10 | Significant log10 reduction compared to nontreated controls: Collagen III ([2]; HDF3CGF system, 20.0 μM): −0.13 log10 | Significant log10 reduction compared to nontreated controls: Interferon gamma-induced protein 10 (IP-10)/CXCL10 ([2]; HDF3CGF system, 20.0 μM): −0.14 log10 | Significant log10 reduction compared to nontreated controls: Interferon-inducible T cell alpha chemoattractant (I-TAC)/CXCL11 ([2]; HDF3CGF system, 20.0 μM): −0.17 log10 | Significant log10 reduction compared to nontreated controls: Monokine induced by gamma interferon (MIG)/CXCL9 ([2]; HDF3CGF system, 20.0 μM): −0.10 log10 | Significant log10 reduction compared to nontreated controls: Plasminogen activation inhibitor 1 (PAI-1) ([2]; HDF3CGF system, 20.0 μM): −0.13 log10 | Significant log10 reduction compared to nontreated controls: Vascular cell adhesion molecule 1 (VCAM-1) ([2]; HDF3CGF system, 20.0 μM): −0.28 log10

CCCCCCC=CCCCCCCCCC(=O)O [Compound 10-heptadecanoate]
Significant log10 reduction compared to nontreated controls: Secreted interleukin 2 (IL-2) ([1]; BT system, 6.7 μM): −0.11 log10

NCCCCC(=O)O [5-aminovalerate]
Significant log10 reduction compared to nontreated controls: Secreted prostaglandin E2 (PGE2) ([5]; LPS system, 6.7 μM): −0.10 log10 | secretion of prostaglandin E2 (PGE2) [5]: lowered | Significant log10 reduction compared to nontreated controls: T cell proliferation ([6]; 0.7 μM): −0.7 log10 | Significant log10 reduction compared to nontreated controls: T cell proliferation ([6]; 2.2 μM): −0.12 log10 | Significant log10 reduction compared to nontreated controls: T cell proliferation ([6]; 6.7 μM): −0.14 log10 | T cell proliferation [6, 7]: decreased | Significant log10 reduction compared to nontreated controls: Tumor necrosis factor alpha (TNFα) ([1]; BT system, 6.7 μM): −0.11 log10 | decorin [2, 8]: inhibitory activity | Significant log10 reduction compared to nontreated controls: Decorin ([3]; 6.7 μM): −0.07 log10 | Significant log10 reduction compared to nontreated controls: Decorin ([3]; 20.0 μM): −0.10 log10

Reference: patent US11992473B2, “Compositions and methods for diagnosis and treatment of conditions related to the quality of aging and longevity” (Epitracker, Inc., priority 2018, dated 2024)
